The source of these data is PubChem BioAssay (NCI).

Test systems include A549 NSCLC; ACHN renal; CCRF-CEM leukemia; EKVX NSCLC; MDA-MB-231 breast; RPMI-8226 leukemia; SF-539 CNS; SK-MEL-28 melanoma; T-47D breast; TK-10 renal.
Holding throughout (test): inhibition of tumour cell growth, NCI panel, 48 h

The structures appear in SMILES notation.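 Cells were grown in 96-well plates and exposed to each compound for 48 hours at five concentrations; endpoints were interpolated linearly between bracketing concentrations, or set to the highest concentration if not reached. GI50 = concentration required for 50% inhibition of growth. TGI marks complete inhibition of growth.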

On to `O=C1OC(=O)C(=C\c2ccc3c(c2)OCO3)/C1=C/c1ccc2c(c1)OCO2`, for which the TGI is greater than 100 µM in the test with A549 NSCLC; greater than 100 µM with ACHN renal; greater than 88.6 µM in the test with CCRF-CEM leukemia; greater than 100 µM in the test on EKVX NSCLC; greater than 100 µM with MDA-MB-231 breast; 97.2 µM with RPMI-8226 leukemia. Further, the TGI in the test on SF-539 CNS, in the test on SK-MEL-28 melanoma, in the test on T-47D breast and with TK-10 renal was greater than 100 µM throughout.
Consider `O=C(/C=C/c1ccccc1)CCN1CCOCC1`, for which the TGI was found to be 56.8 µM in the test with A549 NSCLC; 28.6 µM with ACHN renal; 12.1 µM in the test on CCRF-CEM leukemia; 30.6 µM with EKVX NSCLC; 35.1 µM with MDA-MB-231 breast; 7.54 µM in the test on RPMI-8226 leukemia. The TGI with SF-539 CNS is 25 µM; with SK-MEL-28 melanoma it was 27.3 µM; with T-47D breast it was 44 µM; with TK-10 renal, 26.7 µM.
Take `COc1cc2c(cc1OCCCn1c(-c3ccccn3)nc3ccccc31)N=C[C@@H]1CCCN1C2=O`: the GI50 was 1.87 µM in the test with A549 NSCLC; 2.23 µM with ACHN renal; 15.7 µM in the test on CCRF-CEM leukemia; 5 µM in the test on EKVX NSCLC; 2.5 µM with MDA-MB-231 breast; 8.8 µM in the test on RPMI-8226 leukemia. In addition, the GI50 in the test with SF-539 CNS was 2.27 µM; in the test with SK-MEL-28 melanoma, 5.01 µM; in the test with T-47D breast, 2.14 µM; in the test on TK-10 renal, 3.32 µM. Besides, the TGI in the test on A549 NSCLC was 7.08 µM; with ACHN renal, 6.28 µM; in the test with CCRF-CEM leukemia, greater than 25 µM; in the test with EKVX NSCLC, 40.2 µM; with MDA-MB-231 breast it was 13.5 µM; with RPMI-8226 leukemia, greater than 20.8 µM. Moreover, the TGI with SF-539 CNS came out at 4.98 µM; with SK-MEL-28 melanoma it was 11.6 µM; in the test on T-47D breast, 8.13 µM; in the test on TK-10 renal it was 10.9 µM.
Take `O=C1OCC2=C1C(c1ccc(Cl)c(Cl)c1)c1cc3c(cc1N2CCO)OCCO3` (centres undefined): the GI50 with A549 NSCLC is 0.299 µM; with ACHN renal it was 0.334 µM; in the test with CCRF-CEM leukemia, 0.184 µM; in the test on EKVX NSCLC, 1.23 µM; in the test with MDA-MB-231 breast, 0.833 µM; with RPMI-8226 leukemia, 0.405 µM. Further, the GI50 with SF-539 CNS is 0.177 µM; in the test on SK-MEL-28 melanoma, 0.412 µM; in the test with T-47D breast, 0.282 µM; in the test on TK-10 renal it was 0.513 µM. The TGI was 11.8 µM in the test with A549 NSCLC; 44.9 µM in the test on ACHN renal; 16.7 µM in the test with CCRF-CEM leukemia; greater than 38.6 µM with EKVX NSCLC; 7.59 µM with MDA-MB-231 breast; 12.9 µM in the test with RPMI-8226 leukemia. Moreover, the TGI in the test on SF-539 CNS is 1.74 µM; in the test on SK-MEL-28 melanoma it was greater than 38.6 µM; in the test with T-47D breast, greater than 50 µM; in the test on TK-10 renal, 20 µM.
As for `COc1cc2c(c(OC)c1OC)-c1ccc(SC)c(=O)cc1C(NC(=O)c1ccccc1)CC2` (centres undefined), the TGI is 65.9 µM in the test on A549 NSCLC; greater than 63.1 µM with ACHN renal; greater than 68.1 µM in the test on CCRF-CEM leukemia; greater than 100 µM with EKVX NSCLC; 1.77 µM in the test on MDA-MB-231 breast; 52.5 µM with RPMI-8226 leukemia. Also, the TGI in the test with SF-539 CNS is 0.0922 µM; in the test on SK-MEL-28 melanoma it was greater than 63.1 µM; in the test on T-47D breast, greater than 100 µM; with TK-10 renal, 64.4 µM.
With `COc1cc2c(cc1C1COc3cc4occc4cc3C1=O)OCO2` (centres undefined), the TGI with A549 NSCLC is greater than 100 µM; in the test with ACHN renal, greater than 100 µM; in the test on CCRF-CEM leukemia, greater than 100 µM; in the test with EKVX NSCLC it was greater than 100 µM; in the test with MDA-MB-231 breast, greater than 100 µM; with RPMI-8226 leukemia it was 30.1 µM. Moreover, the TGI in the test with SF-539 CNS, in the test with SK-MEL-28 melanoma, in the test on T-47D breast and in the test on TK-10 renal was greater than 100 µM in each case.
`O=C1CCC(N2Cc3cc(CNC(=O)C(F)(F)c4ccc(Cl)cc4)ccc3C2=O)C(=O)N1` (centres undefined): the GI50 was greater than 100 µM in the test on A549 NSCLC; greater than 100 µM with ACHN renal; less than 0.0156 µM in the test on CCRF-CEM leukemia; greater than 100 µM in the test with EKVX NSCLC; 0.0679 µM in the test with MDA-MB-231 breast; greater than 54.7 µM in the test on RPMI-8226 leukemia. Moreover, the GI50 is greater than 100 µM with SF-539 CNS, greater than 100 µM in the test on SK-MEL-28 melanoma, 0.442 µM with T-47D breast and greater than 100 µM in the test on TK-10 renal. Moreover, the TGI with A549 NSCLC, in the test with ACHN renal, in the test on EKVX NSCLC, with MDA-MB-231 breast, in the test on RPMI-8226 leukemia and in the test on SF-539 CNS was greater than 100 µM throughout. In addition, the TGI in the test with SK-MEL-28 melanoma, in the test with T-47D breast and in the test on TK-10 renal was greater than 100 µM in each case.
Turning to `CC(C)NCCCn1c(Sc2cc3c(cc2I)OCO3)nc2c(N)ncnc21`, the GI50 is 0.0872 µM with A549 NSCLC; 0.297 µM in the test with ACHN renal; 0.425 µM in the test with CCRF-CEM leukemia; 2.53 µM with EKVX NSCLC; 0.481 µM in the test with MDA-MB-231 breast; 1.53 µM in the test with RPMI-8226 leukemia. Besides, the GI50 in the test on SF-539 CNS is 0.858 µM; in the test with SK-MEL-28 melanoma, 0.418 µM; with T-47D breast it was 0.155 µM; in the test on TK-10 renal, 0.161 µM. Also, the TGI in the test with A549 NSCLC was greater than 86.6 µM; in the test with ACHN renal, greater than 100 µM; in the test with CCRF-CEM leukemia it was greater than 100 µM; in the test with EKVX NSCLC it was greater than 100 µM; with MDA-MB-231 breast, 61 µM; in the test with RPMI-8226 leukemia, greater than 47.7 µM. Further, the TGI with SF-539 CNS is greater than 68.4 µM; in the test on SK-MEL-28 melanoma it was 44.5 µM; in the test on T-47D breast it was greater than 100 µM; in the test on TK-10 renal, greater than 100 µM.
On to `Cc1ccc(/C=N\NC(=O)c2[nH]c3ccc(F)cc3c2-c2ccccc2)cc1`, for which the GI50 in the test on A549 NSCLC is 0.0344 µM; in the test with ACHN renal, 0.0538 µM; in the test on CCRF-CEM leukemia, 0.0275 µM; in the test with EKVX NSCLC it was 0.0691 µM; with MDA-MB-231 breast, 0.0283 µM; in the test on RPMI-8226 leukemia it was 0.0395 µM. In addition, the GI50 in the test on SF-539 CNS is 0.0297 µM; in the test with SK-MEL-28 melanoma, 1.15 µM; with T-47D breast, 1.1 µM; with TK-10 renal, 0.0412 µM. Further, the TGI with A549 NSCLC was greater than 100 µM; with ACHN renal it was greater than 100 µM; with CCRF-CEM leukemia, greater than 100 µM; in the test with EKVX NSCLC, greater than 100 µM; with MDA-MB-231 breast, 0.129 µM; in the test with RPMI-8226 leukemia it was greater than 37.2 µM. The TGI was 0.965 µM with SF-539 CNS, greater than 100 µM with SK-MEL-28 melanoma, greater than 100 µM in the test with T-47D breast and greater than 93.3 µM in the test on TK-10 renal.
